Where a chain is given by its changes, count along the chain named.
What was measured:
[1] = biological target: 5-HT binding protein (5-HTBP), an acetylcholine binding protein (AChBP) from Aplysia californica engineered to bind 5-HT (Aplysia californica); experiment: crystal structure; 5-HTBP at 6 mg/mL mixed with 5 mM varenicline; space group P4(1)2(1)2; 2.3 Å; one pentamer per asymmetric unit
[2] = biological target: 5-HTBP (Aplysia californica, UniProt Q8WSF8, Q74R/S111E/V159L/K160T); experiment: X-ray crystal structure, […] Å; type: binding; settings: co-crystallised, 5 mM varenicline (tartrate) with 6 mg/mL protein; orthosteric site, all five sites
Chain of 5-HTBP (Q8WSF8 entry or part of it Q74R/S111E/V159L/K160T): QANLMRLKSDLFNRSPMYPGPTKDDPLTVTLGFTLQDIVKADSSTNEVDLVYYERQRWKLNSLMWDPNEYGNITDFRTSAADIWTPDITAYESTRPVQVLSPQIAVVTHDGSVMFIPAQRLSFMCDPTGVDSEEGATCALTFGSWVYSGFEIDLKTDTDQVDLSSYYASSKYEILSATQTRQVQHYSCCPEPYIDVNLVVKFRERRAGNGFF

[3] = biological target: T1, 5-HT3 receptor (5-HT3A) (Homo sapiens, UniProt P46098, Y148A); experiment: membrane potential dye fluorescence, FlexStation, transfected HEK293 cells; type: cell-based; settings: read-out: varenicline EC50
T1 construct: gene HTR3A; full-length cDNA in pcDNA3.1, transiently expressed in HEK293 cells; homopentamer (also in Xenopus oocytes)
T1 sequence (P46098 24-478 Y148A): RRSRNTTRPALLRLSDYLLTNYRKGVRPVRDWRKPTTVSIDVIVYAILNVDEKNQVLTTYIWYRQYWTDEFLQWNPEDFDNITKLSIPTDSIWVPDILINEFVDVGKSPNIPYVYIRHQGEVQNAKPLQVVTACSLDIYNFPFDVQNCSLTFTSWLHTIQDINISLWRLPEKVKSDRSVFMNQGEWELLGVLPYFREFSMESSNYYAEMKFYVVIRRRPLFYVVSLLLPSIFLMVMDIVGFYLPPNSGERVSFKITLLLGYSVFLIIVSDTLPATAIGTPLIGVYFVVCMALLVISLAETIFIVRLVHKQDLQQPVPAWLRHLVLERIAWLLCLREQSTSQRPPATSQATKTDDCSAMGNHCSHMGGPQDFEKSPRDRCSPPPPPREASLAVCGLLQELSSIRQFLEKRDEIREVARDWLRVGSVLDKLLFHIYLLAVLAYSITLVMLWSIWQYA

[4] = biological target: T2, 5-HT3 receptor (5-HT3A) (Homo sapiens, UniProt P46098); experiment: as above; type: cell-based; settings: read-out: varenicline EC50
T2 construct: gene HTR3A; full-length cDNA in pcDNA3.1, transiently expressed in HEK293 cells; homopentamer (also in Xenopus oocytes)
T2 sequence (P46098 24-478): T1 sequence (P46098 24-478 Y148A) with A125Y

[5] = biological target: T3, 5-HT3 receptor (5-HT3A) (Homo sapiens, UniProt P46098, N123Q); experiment: as above; type: cell-based; settings: read-out: varenicline EC50
T3 construct: gene HTR3A; full-length cDNA in pcDNA3.1, transiently expressed in HEK293 cells; homopentamer (also in Xenopus oocytes)
T3 sequence (P46098 24-478 N123Q): T1 sequence (P46098 24-478 Y148A) with N100Q, A125Y

[6] = biological target: T4, 5-HT3 receptor (5-HT3A) (Homo sapiens, UniProt P46098, W178Y); experiment: as above; type: cell-based; settings: read-out: varenicline EC50
T4 construct: gene HTR3A; full-length cDNA in pcDNA3.1, transiently expressed in HEK293 cells; homopentamer (also in Xenopus oocytes)
T4 sequence (P46098 24-478 W178Y): T1 sequence (P46098 24-478 Y148A) with A125Y, W155Y

[7] = biological target: T5, 5-HT3 receptor (5-HT3A) (Homo sapiens, UniProt P46098, Y89A); experiment: as above; type: cell-based; settings: read-out: varenicline EC50
T5 construct: gene HTR3A; full-length cDNA in pcDNA3.1, transiently expressed in HEK293 cells; homopentamer (also in Xenopus oocytes)
T5 sequence (P46098 24-478 Y89A): T1 sequence (P46098 24-478 Y148A) with Y66A, A125Y

[8] = biological target: T6, 5-HT3 receptor (5-HT3A) (Homo sapiens, UniProt P46098, W85Y); experiment: as above; type: cell-based; settings: read-out: varenicline EC50
T6 construct: gene HTR3A; full-length cDNA in pcDNA3.1, transiently expressed in HEK293 cells; homopentamer (also in Xenopus oocytes)
T6 sequence (P46098 24-478 W85Y): T1 sequence (P46098 24-478 Y148A) with W62Y, A125Y

| stoichiometry N [1] | Molecule | X-ray crystal structure, 2.3 Å [2] | EC50 [3] [µM] | EC50 [4] [µM] | EC50 [5] [µM] | EC50 [6] [µM] | EC50 [7] [µM] | EC50 [8] [µM] |
| --- | --- | --- | --- | --- | --- | --- | --- | --- |
| 5 | 5-HT binding protein (5-HTBP), an acetylcholine binding protein (AChBP) from Aplysia californica engineered to bind 5-HT (natural protein) |  |  |  |  |  |  |  |
|  | c1cnc2cc3c(cc2n1)C1CNCC3C1 [varenicline] | three-dimensional structure of 5-HTBP in complex with varenicline | 9.4 | 0.42 | 26 | 38 | 0.13 | 2.9 |

Source: publication PMC4505686 (ACS Chemical Neuroscience, 2015)
